The text below walks through data of patent publication US4087390A, “Somatostatin analogs and intermediates thereto” (Eli Lilly and Company, priority 1977, dated 1978).

Bridge positions count the residues as written; N and C are the ends. Square brackets hold non-standard residues; d marks the D form. Peptide text beside a SMILES is read from it.

Test [1] has as its system gastric HCl secretion induced by the C-terminal tetrapeptide of gastrin. In words: in vivo inhibition of gastric acid secretion in dogs with chronic fistula and Heidenhain pouch. The method, then:
D-Val^2, D-Trp^8 -somatostatin was tested in dogs for its in vivo inhibition of gastric acid secretion. In six dogs with chronic fistula and Heidenhain pouch, gastric HCl secretion was induced by infusion of the C-terminal tetrapeptide of gastrin at 0.5 μg/kg-hr. Each dog served as its own control, receiving on a separate day only the tetrapeptide. On another day, the six dogs received the tetrapeptide, and after one hour of steady state secretion of HCl, D-Val^2, D-Trp^8 -somatostatin was infused at 0.25 μg/kg-hr. for one hour. Collection of gastric acid samples was continued for an additional 1.5 hours at 15 minute intervals. The samples were titrated to pH 7 with an automatic titrator. The maximal inhibitory effect of the D-Val^2, D-Trp^8 -somatostatin was extrapolated against the dose-response curve of somatostatin, and the relative potency of the analog to that of somatostatin is expressed as percent activity. D-Val^2, D-Trp^8 -somatostatin inhibited steady state acid secretion induced by the C-terminal tetrapeptide of gastrin by 61.9 ± 3.4% standard error of mean. This effect is equivalent to that of 0.324 μg/kg-hr. of somatostatin. Its activity relative to that of somatostatin thus is 130%.

The next test deals with gut motility. Nature of the test: action on gut motility in conscious dogs (intralumenal pressure). The format is in vivo. As for the experimental part:
D-Val^2, D-Trp^8 -somatostatin also was tested for its action on gut motility in conscious dogs. Three dogs having intralumenal catheters placed in the antrum, duodenum, and pylorus were used. Pressure changes in the gut lumen were recorded on a Visicorder using strain gauges and miniature light beam galvanometers. After a steady state control was established, D-Val^2, D-Trp^8 -somatostatin was infused intravenously over a ten minute period. […] The minimum effective dose required to increase the pyloric pressure and to decrease the duodenum and antrum pressures was >0.125 to <0.25 μg./kg.-10 minutes.

For test [2], the system named is secretion from the pancreas induced by secretin and cholecystokinin. In words: inhibition of pancreatic secretion in dogs with pancreatic and total gastric fistula. The test is classed as in vivo. The method, then:
In three dogs having both pancreatic and total gastric fistula, secretion from the pancreas was induced by infusion of secretin at 2 units/kg-hr. and cholecystokinin at 0.45 unit/kg-hr., and secretion of gastric HCl by infusion of tetragastrin at 0.5 μg/kg-hr. After a steady response was established, each dog received D-Val^2, D-Trp^8 -somatostatin for one hour at 0.25 μg/kg-hr. The peak inhibitory effect expressed as percent change over control for total protein was -72%. This corresponds to the inhibitory effect obtained by administration of about 0.5 μg/kg-hr. of somatostatin.

The subject of another test is growth hormone secretion. In words: release of growth hormone in sodium pentobarbital-stimulated rats. The test is classed as in vivo, Spraque-Dawley rats. The following applies: subcutaneously, serum growth hormone 20 minutes after administration. The method, then:
D-Val^2, D-Trp^8 -somatostatin also was tested for its activity with respect to the release of growth hormone. The procedure which was employed is carried out using normal male Spraque-Dawley rats weighing 100-120 grams (Laboratory Supply Company, Indianapolis, Indiana). The test is a modification of the method of P. Brazeau, W. Vale, and R. Guilleman, Endocrinology, 94, 184 (1974). In this assay, five groups of eight rats each were employed. Sodium pentobarbital was administered intraperitoneally to all of the rats to stimulate growth hormone secretion. One group served as the control and received only saline. Two of the groups received somatostatin, one at 2 μg./rat, subcutaneously, and the other at 50 μg./rat, subcutaneously. The other two groups received D-Val^2, D-Trp^8 -somatostatin, one at 2 μg./rat, subcutaneously, and the other at 50 μg./rat, subcutaneously. The serum concentration of growth hormone was measured 20 minutes after simultaneous administration of sodium pentobarbital and test compound. The degree of inhibition of serum growth hormone concentration then was determined with respect to the control group, and the relative activities of D-Val^2, D-Trp^8 -somatostatin and somatostatin itself were compared. […]

The subject of test [3] is glucagon and insulin secretion. In words: in vivo inhibition of glucagon and insulin secretion upon stimulation with L-alanine. Also on record: species or system mongrel dogs. The following applies: intravenous infusion. As for the experimental part: D-Val^2, D-Trp^8 -somatostatin was tested for its in vivo activity in inhibiting glucagon and insulin secretion upon stimulation with L-alanine. Normal mongrel dogs of either sex were fasted overnight. Control blood samples were obtained, and then an intravenous infusion of saline, somatostatin, or D-Val^2, D-Trp^8 -somatostatin was started. After 30 minutes, L-alanine additionally was administered intravenously for a period of 15 minutes. The infusion of saline, somatostatin, or D-Val^2 D-Trp^8 -somatostatin was continued for 15 minutes after completion of the L-alanine infusion. The infusion of L-alanine caused an abrupt increase in serum concentration of glucagon and insulin which returned to control concentration upon termination of the L-alanine infusion. From the above it was determined that the minimal effective concentration of D-Val^2, D-Trp^8 -somatostatin is about 194 nanograms/kg./min. whereas the minimal effective concentration of somatostatin is 100-200 nanograms/kg./min.

A further test relates to glucagon secretion. Nature of the test: in vivo inhibition of glucagon secretion upon stimulation with insulin. On the set-up: species or system mongrel dogs. The following applies: infused at a rate of 0.109 μg/kg/min. The method, then:
D-Val^2, D-Trp^8 -somatostatin also was evaluated for in vivo activity in inhibiting glucagon secretion upon stimulation with insulin. Normal mongrel dogs of either sex were fasted overnight. After control blood samples had been obtained, an intravenous infusion of saline, somatostatin, or D-Val^2, D-Trp^8 -somatostatin was commenced. After 15 minutes, insulin, 0.3 units/kg., was injected intravenously. The infusion of saline, somatostatin, or the test compound was continued for two hours, and blood samples were obtained at various intervals throughout the test. The total dose of the somatostatin or test compound ranged from 120-260 μg./dog (0.07-0.13 μg/kg/min.). Administration of insulin produced a reduction in the blood glucose concentration of an increase in serum glucagon concentration.

Setting [4] is: intravenous infusion over ten minutes.

Consider `CC(C)[C@@H](NC(=O)[C@H](C)N)C(=O)N[C@H]1CSSC[C@@H](C(=O)O)NC(=O)[C@H](CO)NC(=O)[C@H]([C@@H](C)O)NC(=O)[C@H](Cc2ccccc2)NC(=O)[C@H]([C@@H](C)O)NC(=O)[C@H](CCCCN)NC(=O)[C@@H](Cc2c[nH]c3ccccc23)NC(=O)[C@H](Cc2ccccc2)NC(=O)[C@H](Cc2ccccc2)NC(=O)[C@H](CC(N)=O)NC(=O)[C@H](CCCCN)NC1=O` [D-Val^2, D-Trp^8 -somatostatin] (H-A[dV]CKNFF[dW]KTFTSC-OH; disulfide 3-14), for which, in test [1] (effect of 0.25 μg/kg-hr. extrapolated against the dose-response curve of somatostatin), the “dose of somatostatin of equivalent effect on gastric acid secretion” value is reported as 0.324 μg/kg-hr. Further, the “activity relative to that of somatostatin (gastric acid secretion)” value in test [1] (relative potency expressed as percent activity) is 130%. The “inhibition of steady state acid secretion induced by the C-terminal tetrapeptide of gastrin” value in test [1] (six dogs, infused at 0.25 μg/kg-hr. for one hour, maximal inhibitory effect, ± standard error of mean) was 61.9 ± 3.4%. Further, the “gut motility activity compared with somatostatin” value with gut motility (based on minimum effective dose) was “approximately equivalent to that of somatostatin itself”. Moreover, the “effect on intralumenal pressure in the pylorus” value with gut motility (setting [4]) is “initially increased the intralumenal pressure in the pylorus and then decreased it”. In addition, the “effect on pressure in the duodenum and the antrum” value with gut motility (setting [4]) is on record as “remained depressed throughout the test”. The “dose of somatostatin giving the corresponding inhibitory effect on pancreatic secretion” value in test [2] (compared with 0.25 μg/kg-hr. of the analog) is given as “about 0.5 μg/kg-hr”. Also, the “peak inhibitory effect expressed as percent change over control for total protein” value in test [2] (three dogs, 0.25 μg/kg-hr. for one hour) is listed as -72%. The figures for the “inhibition of the increase in growth hormone secretion over control” value in the test on growth hormone secretion (2 μg./rat) and in the test with growth hormone secretion (50 μg./rat) were 21% and 88%, respectively. In test [3], the “minimal effective concentration (inhibition of glucagon and insulin secretion)” value was “about 194 nanograms/kg./min”. Also, the “effect on the rise in serum glucagon concentration produced by insulin hypoglycemia” value with glucagon secretion was “partial inhibition”.
